The values that follow come from patent publication US7449545B2, “Antimicrobial bolisin peptides” (IPF Pharmaceuticals GmbH, priority 2001, dated 2008).

Assay type in all cases: cell-based
In assay [1] the test system is Candida albicans ATCC 10231. The note with it: for minimum inhibition concentration: ATCC 10231, 2 h; for peptide concentration giving 75% inhibition of growth (value in parentheses): Mueller Hinton Broth, complete growth inhibition not achieved. From the text: (§1) The bolisin analogues of the present invention were examined for their suitability as antibiotic therapeutical agents by means of various biological tests. Thus, the chemically synthesized peptides were examined for their antimicrobial effectiveness against three Gram-positive and three Gram-negative bacterial strains as well as against a yeast.
(§2) The following microorganisms were used: • Gram-positive: Staphylococcus aureus ATCC 25923 • Enterococcus faecalis ATCC 51299 (vancomycin-resistant) • Streptococcus pneumoniae DSM 11865 (penicillin-resistant) • Gram-negative: Escherichia coli ATCC 25922 • Pseudomonas aeruginosa ATCC 9027 • Klebsiella pneumoniae ATCC 10031 • Yeast: Candida albicans ATCC 10231
(§3) The antibiotic activity of bolisin analogues was examined by determining the minimum inhibition concentration. […] This method allows to obtain a quantitative result about the antimicrobial potency of the peptides. These examinations were performed by analogy with the recommendations (M7-A3) edited by the NCCLS (National Committee for Clinical Laboratory Standards) by applying a dilution test in a liquid medium using chemically synthesized peptides (peptide sequences according to claims 1 to 3). Mueller Hinton Broth was used as the test medium according to the NCCLS recommendations unless indicated otherwise. […] The minimum inhibition concentrations are stated in [μg/ml].
(§4) A complete growth inhibition could not be achieved in this case. For determining the minimum inhibition concentration, the following microorganisms were used: • 1. Staphylococcus aureus ATCC 25923 • 2. Enterococcus faecalis ATCC 51299 (vancomycin-resistant) • 3. Streptococcus pneumoniae DSM 11865 (penicillin-resistant) • 4. Escherichia coli ATCC 25922 • 5. Pseudomonas aeruginosa ATCC 9027 • 6. Klebsiella pneumoniae ATCC 10031 • 7. Candida albicans ATCC 10231

The subject of assay [2] is Enterococcus faecalis ATCC 51299 (vancomycin-resistant). The note with it: ATCC 51299, 2 h.
Source text: as §1, §2, §3, §4

The subject of assay [3] is Escherichia coli ATCC 25922. The note with it: ATCC 25922, 2 h.
Source text: as §1, §2, §3, §4

Assay [4] has as its system Klebsiella pneumoniae ATCC 10031. The note with it: ATCC 10031, 2 h.
Source text: as §1, §2, §3, §4

For assay [5], the system named is Staphylococcus aureus ATCC 25923. The conditions noted are these: ATCC 25923, 2 h.
Source text: as §1, §2, §3, §4

Assay [6] concerns Streptococcus pneumoniae DSM 11865 (penicillin-resistant). The conditions noted are these: DSM 11865, 2 h.
Source text: as §1, §2, §3, §4

The subject of assay [7] is Pseudomonas aeruginosa ATCC 9027. The conditions noted are these: Mueller Hinton Broth; complete growth inhibition not achieved.
Source text: as §1, §2
The antibiotic activity of bolisin analogues was examined by determining the minimum inhibition concentration. The minimum inhibition concentration of an analogue designates the lowest peptide concentration which is required to inhibit the growth of microorganisms completely after an incubation time of 18±2 h. This method allows to obtain a quantitative result about the antimicrobial potency of the peptides. These examinations were performed by analogy with the recommendations (M7-A3) edited by the NCCLS (National Committee for Clinical Laboratory Standards) by applying a dilution test in a liquid medium using chemically synthesized peptides (peptide sequences according to claims 1 to 3). Mueller Hinton Broth was used as the test medium according to the NCCLS recommendations unless indicated otherwise. […] The minimum inhibition concentrations are stated in [μg/ml].
as §4

Ends that are not written are not given here.

In the case of “KYIVYKIRSARKRRKALK-OH [BOL-84, KYIVYKIRSARKRRKALK]”, the minimum inhibition concentration in assay [1] was 37.5 µg/mL; in assay [2] it was greater than 300 µg/mL; in assay [3], greater than 300 µg/mL; in assay [4], 75 µg/mL; in assay [5] it was greater than 300 µg/mL; in assay [6], 300 µg/mL. Moreover, the “peptide concentration giving 75% inhibition of growth (value in parentheses)” value in assay [7] is recorded as “(75) μg/ml”.
As to “KYIVYKIRSAWKRSKALK-OH [BOL-85, KYIVYKIRSAWKRSKALK]”, the minimum inhibition concentration in assay [1] was 75 µg/mL; in assay [2], 300 µg/mL; in assay [3] it was greater than 300 µg/mL; in assay [4] it was 150 µg/mL; in assay [5] it was greater than 300 µg/mL; in assay [6], 300 µg/mL. Also, the “peptide concentration giving 75% inhibition of growth (value in parentheses)” value in assay [7] is on record as “(37.5) μg/ml”.
For “KYIVYKIRWARKRRKALK-OH [BOL-87, KYIVYKIRWARKRRKALK]”, the minimum inhibition concentration in assay [1] turned out to be 9.375 µg/mL; in assay [2] it was 37.5 µg/mL; in assay [3], 18.75 µg/mL; in assay [4] it was 9.375 µg/mL; in assay [5], 9.375 µg/mL; in assay [6] it was 9.375 µg/mL. The “peptide concentration giving 75% inhibition of growth (value in parentheses)” value in assay [7] was “(9.375) μg/ml”.
For the substance “YIVRKIRSAWKRRKALK-OH [BOL-80, YIVRKIRSAWKRRKALK]”, the minimum inhibition concentration in assay [1] is 37.5 µg/mL; in assay [2], greater than 300 µg/mL; in assay [3] it was greater than 300 µg/mL; in assay [4], 150 µg/mL; in assay [5], greater than 300 µg/mL; in assay [6] it was greater than 300 µg/mL. For the same substance, the “peptide concentration giving 75% inhibition of growth (value in parentheses)” value in assay [7] is listed as “(18.75) μg/ml”.
Consider “YIVRKIRSAWKRWKALK-OH [BOL-79, YIVRKIRSAWKRWKALK]”, for which the minimum inhibition concentration in assay [1] was 4.7 µg/mL; in assay [2] it was greater than 300 µg/mL; in assay [3], 3.125 µg/mL; in assay [4], 2.35 µg/mL; in assay [5], 9.375 µg/mL; in assay [6] it was 300 µg/mL. Further, the “peptide concentration giving 75% inhibition of growth (value in parentheses)” value in assay [7] is reported as “(4.7) μg/ml”.
As to “YIVWKIRSARKRRKALK-OH [BOL-74, YIVWKIRSARKRRKALK]”, the minimum inhibition concentration in assay [1] is 75 µg/mL; in assay [2], 150 µg/mL; in assay [3], 300 µg/mL; in assay [4], 18.75 µg/mL; in assay [5], 300 µg/mL; in assay [6], 150 µg/mL. Further, the “peptide concentration giving 75% inhibition of growth (value in parentheses)” value in assay [7] is “(12.5) μg/ml”.
Regarding “YIVWKIRSAWKRSKALK-OH [BOL-75, YIVWKIRSAWKRSKALK]”, the minimum inhibition concentration in assay [1] was found to be 37.5 µg/mL; in assay [2] it was 200 µg/mL; in assay [3], 75 µg/mL; in assay [4], 75 µg/mL; in assay [5], 150 µg/mL; in assay [6], 150 µg/mL. In assay [7], the “peptide concentration giving 75% inhibition of growth (value in parentheses)” value is listed as “(37.5) μg/ml”.
With “YIVWKIRSAWKRWKALK-OH [BOL-82, YIVWKIRSAWKRWKALK]”, the minimum inhibition concentration was determined as 9.375 µg/mL in assay [1]; 75 µg/mL in assay [2]; 18.75 µg/mL in assay [3]; 12.5 µg/mL in assay [4]; 18.75 µg/mL in assay [5]; 37.5 µg/mL in assay [6]. Besides, the “peptide concentration giving 75% inhibition of growth (value in parentheses)” value in assay [7] is given as “(9.375) μg/ml”.
For “YIVYKIRRAWKRSKALK-OH [BOL-53, YIVYKIRRAWKRSKALK]”, the results for the “peptide concentration giving 75% inhibition of growth (value in parentheses)” value in assay [1] and in assay [7] were “(37.5) μg/ml” and “(75) μg/ml”, respectively. For the same substance, the minimum inhibition concentration in assay [2] is 200 µg/mL; in assay [3] it was 200 µg/mL; in assay [4], 100 µg/mL; in assay [5], 150 µg/mL; in assay [6], 200 µg/mL.
“YIVYKIRRAWKRWKALK-OH [BOL-55, YIVYKIRRAWKRWKALK]”: the minimum inhibition concentration in assay [1] was determined as 9.375 µg/mL; in assay [2], 50 µg/mL; in assay [3], 12.5 µg/mL; in assay [4], 3.125 µg/mL; in assay [5], 12.5 µg/mL; in assay [6], 37.5 µg/mL. Also, the “peptide concentration giving 75% inhibition of growth (value in parentheses)” value in assay [7] is “(9.375) μg/ml”.
For “YIVYKIRSAKKRKKALK-OH [BOL-56, YIVYKIRSAKKRKKALK]”, the “peptide concentration giving 75% inhibition of growth (value in parentheses)” value in assay [1] was “(300) μg/ml”; in assay [7] it was “(200) μg/ml”. For the same substance, the minimum inhibition concentration was greater than 300 µg/mL in assay [2]; greater than 300 µg/mL in assay [3]; 300 µg/mL in assay [4]; greater than 300 µg/mL in assay [5]; greater than 300 µg/mL in assay [6].
As for “YIVYKIRSAKKRWKALK-OH [BOL-57, YIVYKIRSAKKRWKALK]”, the minimum inhibition concentration in assay [1] was 300 µg/mL; in assay [2], greater than 300 µg/mL; in assay [3], greater than 300 µg/mL; in assay [4], 300 µg/mL; in assay [5], greater than 300 µg/mL; in assay [6] it was greater than 300 µg/mL. Besides, the “peptide concentration giving 75% inhibition of growth (value in parentheses)” value in assay [7] is recorded as “(200) μg/ml”.
Regarding “YIVYKIRSARKRWKAL [BOL-68, YIVYKIRSARKRWKAL]”, the minimum inhibition concentration is 200 µg/mL in assay [1]; 200 µg/mL in assay [2]; 200 µg/mL in assay [3]; 300 µg/mL in assay [4]; 200 µg/mL in assay [5]; 300 µg/mL in assay [6]. In assay [7], the “peptide concentration giving 75% inhibition of growth (value in parentheses)” value is “(200) μg/ml”.
Consider “YIVYKIRSARKRWKALK-OH [BOL-46, YIVYKIRSARKRWKALK]”, for which the minimum inhibition concentration in assay [1] stood at 150 µg/mL; in assay [2], 200 µg/mL; in assay [3], 200 µg/mL; in assay [4], 150 µg/mL; in assay [5], 300 µg/mL; in assay [6] it was 200 µg/mL. Further, the “peptide concentration giving 75% inhibition of growth (value in parentheses)” value in assay [7] is “(100) μg/ml”.
Regarding “YIVYKIRSAWKRKKALK-OH [BOL-58, YIVYKIRSAWKRKKALK]”, the “peptide concentration giving 75% inhibition of growth (value in parentheses)” value in assay [1] is “(75) μg/ml”; in assay [7], “(100) μg/ml”. For the same substance, the minimum inhibition concentration in assay [2] was greater than 300 µg/mL; in assay [3] it was greater than 300 µg/mL; in assay [4], 100 µg/mL; in assay [5], greater than 300 µg/mL; in assay [6], 300 µg/mL.
Consider “YIVYKIRSAWKRRK-OH [BOL-69, YIVYKIRSAWKRRK]”, for which the minimum inhibition concentration came to 37.5 µg/mL in assay [1]; 150 µg/mL in assay [2]; 150 µg/mL in assay [3]; 300 µg/mL in assay [4]; 300 µg/mL in assay [5]; 200 µg/mL in assay [6]. The “peptide concentration giving 75% inhibition of growth (value in parentheses)” value in assay [7] was “(200) μg/ml”.
